According to patent US20130029928A1 (priority 2010, published 2013):
Like-named read-outs stand apart in the source and are kept apart here.

Experiment: Phase I study CXR1002-001: plasma pharmacokinetics (LC-MS/MS)
Format: in vivo, human
Conditions: human, plasma, oral, person, plasma, read-out: Concentration; for concentration at 336 h: 336 hr (Day 15); for concentration at 360 h: 360 hr (Day 16); for concentration at 504 h: 504 hr (Day 22); for concentration at 528 h: 528 hr (Day 23); for concentration at 672 h: 672 hr (Day 29); for concentration at 696 h: 696 hr (Day 30); for concentration at 840 h: 840 hr (Day 36); for concentration at 864 h: 864 hr (Day 37); for concentration at 24 h: 24 hr (Day 2); for concentration at 168 h: 168 hr (Day 8)
Text: PK samples, PD (fasting) samples, blood glucose, and blood triglyceride samples, were taken over a 6-week period.
Dose limiting toxicity (DLT) will be based on the toxicity assessments over the first 3-week period of the repeat dosing schedule. PK samples (single blood sample) were taken on the following basis: • Every 6 weeks during the repeat dosing phase • If dosing is interrupted or stopped, samples will be taken at intervals according to patient convenience • PK sampling for safety evaluation may take place at any time, as clinically indicated
Plasma samples were collected after the single 50 mg dose at the following timepoints: Pre-dose, and then 0.25, 0.5, 0.75, 1, 1.5, 2, 3, 4, 6, 24, 48, and 72 hours after administration and then once weekly at weeks 2, 3, 4, 5, and 6 (days 8, 15, 22, 29, and 36). For patients treated with the weekly repeat dose, plasma samples were collected at the following timepoints: Pre-dose and then 2, 3, 4 and 24 hours after administration for a total of 6 weeks. Thereafter a single sample was collected every 6 weeks for monitoring of exposure during long term treatment. Plasma samples were processed at site and stored at −80° C. prior to batch shipment to the analytical laboratory.

For `O=C(O)C(F)(F)C(F)(F)C(F)(F)C(F)(F)C(F)(F)C(F)(F)C(F)(F)F` [CXR1002], the concentration at 192 h (600 mg, Patient 021, 600 mg, 192 hr (Day 9)) was 479 µM, the concentration at 336 h (600 mg, Patient 021, 600 mg) was 412 µM and the concentration at 338 h (600 mg, Patient 021, 600 mg) was 650 µM. For the same molecule, the concentration at 339 h (600 mg, Patient 021, 600 mg) was 653 µM, the concentration at 340 h (600 mg, Patient 021, 600 mg) was 633 µM and the concentration at 360 h (600 mg, Patient 021, 600 mg) was 604 µM. The concentration at 504 h (600 mg, Patient 021, 600 mg) was 605 µM, the concentration at 506 h (600 mg, Patient 021, 600 mg) was 734 µM and the concentration at 507 h (600 mg, Patient 021, 600 mg) was 654 µM. The concentration at 508 h (600 mg, Patient 021, 600 mg) was 722 µM, the concentration at 528 h (600 mg, Patient 021, 600 mg) was 678 µM and the concentration at 672 h (600 mg, Patient 021, 600 mg) was 613 µM. For the same molecule, the concentration at 674 h (600 mg, Patient 021, 600 mg) was 681 µM, the concentration at 675 h (600 mg, Patient 021, 600 mg) was 847 µM and the concentration at 676 h (600 mg, Patient 021, 600 mg) was 845 µM. It also gave a concentration at 696 h (600 mg, Patient 021, 600 mg) of 799 µM, a concentration at 840 h (600 mg, Patient 021, 600 mg) of 779 µM and a concentration at 842 h (600 mg, Patient 021, 600 mg) of 968 µM. It also gave a concentration at 843 h (600 mg, Patient 021, 600 mg) of 928 µM, a concentration at 844 h (600 mg, Patient 021, 600 mg) of 981 µM and a concentration at 864 h (600 mg, Patient 021, 600 mg) of 995 µM. The concentration at 2 h (600 mg, Patient 022, 600 mg) was 193 µM, the concentration at 3 h (600 mg, Patient 022, 600 mg) was 196 µM and the concentration at 4 h (600 mg, Patient 022, 600 mg) was 199 µM. The concentration at 24 h (600 mg, Patient 022, 600 mg) was 157 µM, the concentration at 168 h (600 mg, Patient 022, 600 mg) was 143 µM and the concentration at 170 h (600 mg, Patient 022, 600 mg) was 310 µM. For the same molecule, the concentration at 171 h (600 mg, Patient 022, 600 mg) was 270 µM, the concentration at 172 h (600 mg, Patient 022, 600 mg) was 276 µM and the concentration at 192 h (600 mg, Patient 022, 600 mg, 192 hr (day 9)) was 298 µM. For the same molecule, the concentration at 336 h (600 mg, Patient 022, 600 mg) was 289 µM, the concentration at 338 h (600 mg, Patient 022, 600 mg) was 433 µM and the concentration at 339 h (600 mg, Patient 022, 600 mg) was 433 µM. The concentration at 340 h (600 mg, Patient 022, 600 mg) was 405 µM, the concentration at 360 h (600 mg, Patient 022, 600 mg) was 427 µM and the concentration at 504 h (600 mg, Patient 022, 600 mg) was 426 µM. For the same molecule, the concentration at 506 h (600 mg, Patient 022, 600 mg) was 441 µM, the concentration at 507 h (600 mg, Patient 022, 600 mg) was 562 µM and the concentration at 508 h (600 mg, Patient 022, 600 mg) was 519 µM. The concentration at 528 h (600 mg, Patient 022, 600 mg) was 596 µM, the concentration at 2 h (600 mg, Patient 023, 600 mg) was 208 µM and the concentration at 3 h (600 mg, Patient 023, 600 mg) was 233 µM. For the same molecule, the concentration at 4 h (600 mg, Patient 023, 600 mg) was 236 µM, the concentration at 24 h (600 mg, Patient 023, 600 mg) was 221 µM and the concentration at 168 h (600 mg, Patient 023, 600 mg) was 204 µM. It also gave a concentration at 170 h (600 mg, Patient 023, 600 mg) of 336 µM, a concentration at 171 h (600 mg, Patient 023, 600 mg) of 337 µM and a concentration at 172 h (600 mg, Patient 023, 600 mg) of 391 µM. It also gave a concentration at 192 h (600 mg, Patient 023, 600 mg, 192 hr (day 9)) of 400 µM, a concentration at 336 h (600 mg, Patient 023, 600 mg) of 432 µM and a concentration at 338 h (600 mg, Patient 023, 600 mg) of 495 µM. For the same molecule, the concentration at 339 h (600 mg, Patient 023, 600 mg) was 613 µM, the concentration at 340 h (600 mg, Patient 023, 600 mg) was 636 µM and the concentration at 360 h (600 mg, Patient 023, 600 mg) was 616 µM. For the same molecule, the concentration at 2 h (600 mg, Patient 024, 600 mg) was 91.6 µM, the concentration at 3 h (600 mg, Patient 024, 600 mg) was 188 µM and the concentration at 4 h (600 mg, Patient 024, 600 mg) was 283 µM. The concentration at 24 h (600 mg, Patient 024, 600 mg) was 258 µM, the concentration at 168 h (600 mg, Patient 024, 600 mg) was 212 µM and the concentration at 170 h (600 mg, Patient 024, 600 mg) was 436 µM. For the same molecule, the concentration at 171 h (600 mg, Patient 024, 600 mg) was 441 µM, the concentration at 172 h (600 mg, Patient 024, 600 mg) was 439 µM and the concentration at 192 h (600 mg, Patient 024, 600 mg, 192 hr (Day 9)) was 418 µM. For the same molecule, the concentration at 336 h (600 mg, Patient 024, 600 mg) was 488 µM, the concentration at 338 h (600 mg, Patient 024, 600 mg) was 578 µM and the concentration at 339 h (600 mg, Patient 024, 600 mg) was 533 µM. It also gave a concentration at 340 h (600 mg, Patient 024, 600 mg) of 628 µM, a concentration at 360 h (600 mg, Patient 024, 600 mg) of 647 µM and a concentration at 504 h (600 mg, Patient 024, 600 mg) of 691 µM. For the same molecule, the concentration at 506 h (600 mg, Patient 024, 600 mg) was 642 µM, the concentration at 507 h (600 mg, Patient 024, 600 mg) was 706 µM and the concentration at 508 h (600 mg, Patient 024, 600 mg) was 630 µM. The concentration at 528 h (600 mg, Patient 024, 600 mg) was 859 µM, the concentration at 672 h (600 mg, Patient 024, 600 mg) was 788 µM and the concentration at 674 h (600 mg, Patient 024, 600 mg) was 694 µM. For the same molecule, the concentration at 675 h (600 mg, Patient 024, 600 mg) was 779 µM, the concentration at 676 h (600 mg, Patient 024, 600 mg) was 780 µM and the concentration at 696 h (600 mg, Patient 024, 600 mg) was 811 µM. For the same molecule, the concentration at 840 h (600 mg, Patient 024, 600 mg) was 814 µM, the concentration at 842 h (600 mg, Patient 024, 600 mg) was 898 µM and the concentration at 843 h (600 mg, Patient 024, 600 mg) was 904 µM. It also gave a concentration at 844 h (600 mg, Patient 024, 600 mg) of 908 µM, a concentration at 864 h (600 mg, Patient 024, 600 mg) of 966 µM and a concentration at 2 h (750 mg, Patient 026, 750 mg) of 95.8 µM. It also gave a concentration at 3 h (750 mg, Patient 026, 750 mg) of 125 µM, a concentration at 4 h (750 mg, Patient 026, 750 mg) of 149 µM and a concentration at 24 h (750 mg, Patient 026, 750 mg) of 200 µM. It also gave a concentration at 168 h (750 mg, Patient 026, 750 mg) of 186 µM, a concentration at 170 h (750 mg, Patient 026, 750 mg) of 270 µM and a concentration at 171 h (750 mg, Patient 026, 750 mg) of 301 µM. It also gave a concentration at 172 h (750 mg, Patient 026, 750 mg) of 339 µM, a concentration at 192 h (750 mg, Patient 026, 750 mg, 192 hr (Day 9)) of 398 µM and a concentration at 336 h (750 mg, Patient 026, 750 mg) of 352 µM. It also gave a concentration at 338 h (750 mg, Patient 026, 750 mg) of 399 µM, a concentration at 339 h (750 mg, Patient 026, 750 mg) of 506 µM and a concentration at 340 h (750 mg, Patient 026, 750 mg) of 492 µM. For the same molecule, the concentration at 360 h (750 mg, Patient 026, 750 mg) was 625 µM, the concentration at 504 h (750 mg, Patient 026, 750 mg) was 479 µM and the concentration at 506 h (750 mg, Patient 026, 750 mg) was 625 µM. For the same molecule, the concentration at 507 h (750 mg, Patient 026, 750 mg) was 546 µM, the concentration at 508 h (750 mg, Patient 026, 750 mg) was 582 µM and the concentration at 528 h (750 mg, Patient 026, 750 mg) was 608 µM. The concentration at 672 h (750 mg, Patient 026, 750 mg) was 594 µM, the concentration at 674 h (750 mg, Patient 026, 750 mg) was 606 µM and the concentration at 675 h (750 mg, Patient 026, 750 mg) was 655 µM. It also gave a concentration at 676 h (750 mg, Patient 026, 750 mg) of 698 µM, a concentration at 696 h (750 mg, Patient 026, 750 mg) of 732 µM and a concentration at 840 h (750 mg, Patient 026, 750 mg) of 728 µM. The concentration at 842 h (750 mg, Patient 026, 750 mg) was 824 µM, the concentration at 843 h (750 mg, Patient 026, 750 mg) was 776 µM and the concentration at 844 h (750 mg, Patient 026, 750 mg) was 822 µM. The concentration at 864 h (750 mg, Patient 026, 750 mg) was 812 µM, the concentration at 2 h (750 mg, Patient 027, 750 mg) was 110 µM and the concentration at 4 h (750 mg, Patient 027, 750 mg) was 224 µM. The concentration at 24 h (750 mg, Patient 027, 750 mg) was 199 µM.
